# Like-named read-outs stand apart in the source and are kept apart here.
# Columns and labels:
# [1] = molecular target: T1, motilin receptors located on the colon of mature rabbits (Oryctolagus cuniculus, UniProt G1T803); assay: competition with radiolabeled (125I) porcine motilin for the motilin receptors of rabbit colon; type: binding; conditions: for IC50: rabbit colon, 125I motilin
# T1 construct: The colon from mature New Zealand rabbits was removed, dissected free from the mucosa and serosa layers, and diced into small pieces; from tissue; host or cells: colon smooth muscle of mature New Zealand rabbits, crude membrane homogenate
# T1 sequence (G1T803 1-400): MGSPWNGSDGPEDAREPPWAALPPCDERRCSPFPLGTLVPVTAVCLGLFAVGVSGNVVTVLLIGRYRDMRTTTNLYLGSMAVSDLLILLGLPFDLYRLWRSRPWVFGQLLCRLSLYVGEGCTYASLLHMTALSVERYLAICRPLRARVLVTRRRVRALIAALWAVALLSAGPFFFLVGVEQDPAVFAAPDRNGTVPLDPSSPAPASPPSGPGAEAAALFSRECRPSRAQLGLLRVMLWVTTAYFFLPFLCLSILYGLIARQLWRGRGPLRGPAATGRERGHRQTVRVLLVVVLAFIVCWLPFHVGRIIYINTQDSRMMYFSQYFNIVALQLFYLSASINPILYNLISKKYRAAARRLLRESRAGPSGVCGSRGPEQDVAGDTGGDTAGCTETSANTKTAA
# Description: The compounds of the invention were tested for their ability to compete with radiolabeled motilin (porcine) for the motilin receptors located on the colon of mature rabbits. The colon from mature New Zealand rabbits was removed, dissected free from the mucosa and serosa layers, and diced into small pieces. […] The homogenate was centrifuged at 1000×g for 15 min. and the supernatant discarded. The pellet was washed twice before being suspended in homogenizing buffer. This crude homogenate is then passed first through a 19 gauge needle then a 23 gauge needle to further suspend the material and stored as -80° C. […] After 30 min, at 30° C., the material was cooled on ice and centrifuged at 13,000×g for 1 minute. The pellet was washed with 1 mL 0.9% saline and centrifuged at 13,000×g for 15 seconds. The pellet was washed again with cold saline and the supernatant was removed. The pellet was counted in the gamma counter to determine the percentage of […] motilin and thereby the percent inhibition of the test compound. IC50s were determined for some compounds by standard techniques.
# [2] = system: rabbit duodenum smooth muscle (motilin and erythromycin induced contractions); assay: inhibition of motilin (porcine) induced contractions in rabbit duodenum smooth muscle; type: cell-based; conditions: for IC50: rabbit duodenum strips, porcine motilin; for inhibition at 2 µM: @ 2 μM (2.0 μM)
# Description: Select compounds of the invention were evaluated for their ability to inhibit motilin and erythromycin induced contractions in the rabbit duodenum smooth muscle. Rabbits were fasted 24-48 h and euthanized. The venral midline incision was made approximately 7.5 cm above the umbilicus upto the xyphoid process, exposing the upper peritoneal cavity. The first 8 cm. of the duodenum starting at the pyloric valve was quickly removed and placed in Krebs solution containing NaCl, ([…]), KCl (4.7 mM), MgSO4 *7 H2 O (1.2 mM), CaCl2 *2 H2 O (2.4 mM), KH2 PO4 (1 mM), D-glucose (10 mM), and NaHCO3 (24 mM). The lumen was flushed with Krebs and excess tissue was removed. The tissue was cut lengthwise, splayed open with the longitudinal muscle layer facing up, and the longitudinal muscle layer was released away from the circular muscle and cut into 3×30 mm strips. A pre-tied 4-0 silk ligature with a loop was placed at the middle of the strip and the strip was folded over the loop so the strip was half its original length. The tissues were mounted in a 10 mL tissue bath (Radnotti Glass Technology, Inc., Monrovia, Calif.) containing Krebs solution gassed with 95% O2 5% CO2 at 37° C. […] The tissues were allowed to equilibrate for 60-90 min with 2-3 wash cycles. The tissues were equilibrated with two initial contractions induced by a concentration of acetylcholine (1×10^-4 M) that produced a maximal contraction (0.1 mM), with the highest taken as 100% maximall contraction of that tissue. Base line and response levels are expressed as grams tension developed and as a percent of the response to acetylcholine. The test compounds were dissolved in DMSO (2 mM/100% DMSO) and applied to the prepared strips 5-15 minutes prior to the addition of porcine motilin. After addition, the tension is constantly monitored over 5 min and the maximum tension is recorded. The percent contraction was measured at four ascending concentrations and where appropriate IC50s were determined.
# [3] = Oryctolagus cuniculus, read-out: IC50
smiles,measurement,setting,value
"O=C(Nc1ccccc1)N(CC1=CC(Cc2ccccc2)(NC(=O)C(Cl)(Cl)Cl)CC1)c1cccc(OCCN2CCOCC2)c1 (stereo not drawn) [Compound 7, 3-Benzyl-3-trichloroacetylamino-1-(N-phenylaminocarbonyl)-N-[(3-(2-morpholinoethoxy)phenyl)amino]methylcyclopentene]",IC50,[1]; read-out: IC50,45 nM
same,IC50,[2]; read-out: IC50,287 nM
O=C(Nc1ccccc1)N(CC1=CC(Cc2ccccc2)(NC(=O)C(Cl)(Cl)Cl)CC1)c1cccc(OCCN2CCOCC2)c1 (stereo not drawn) [Compound 8],IC50,[1]; read-out: IC50,20 nM
same,IC50,[2]; read-out: IC50,280 nM
"O=C(Nc1ccccc1)N(CC1=CC(Cc2ccccc2)(NC(=O)C(Cl)(Cl)Cl)CC1)c1cccc(OCCN2CCOCC2)c1 (stereo not drawn) [Compound 9, 3-Benzyl-3-trichloroacetylamino-1-(N-phenylaminocarbonyl)-N-[(3-(2-morpholinoethoxy)phenyl)amino]methylcyclopentene]",IC50,[1]; read-out: IC50,> 300 nM
same,IC50,[2]; read-out: IC50,890 nM
"O=C(c1ccccc1)N(CC1=CC(Cc2ccccc2)(NC(=O)C(Cl)(Cl)Cl)CC1)c1cccc(OCCN2CCOCC2)c1 (stereo not drawn) [Compound 10, 3-Benzyl-3-trichloroacetylamino-1-(N-phenylcarbonyl)-N-[(3-(2-morpholinoethoxy)phenyl)amino]methylcyclopentene]",IC50,[1]; read-out: IC50 (unit inferred),300 nM
same,IC50,[2]; [3],393 nM
CCN(CC)CCN(CC1=CC(Cc2ccccc2)(NC(=O)C(Cl)(Cl)Cl)CC1)c1cccc(O)c1 (stereo not drawn) [Compound 50],inhibition at 10 µM,[1],81%
same,inhibition at 20 µM,"[2]; Oryctolagus cuniculus, @ 20 μM",98%
CCN(CC)CCOc1cccc(N(CCN(CC)CC)CC2=CC(Cc3ccccc3)(NC(=O)C(Cl)(Cl)Cl)CC2)c1 (stereo not drawn) [Compound 51],inhibition at 5 µM,[2]; Oryctolagus cuniculus,74%
CCN(CC)CCN(CC1=CC(Cc2ccccc2)(NC(=O)C(Cl)(Cl)Cl)CC1)c1cccc(OCCN2CCCCC2)c1 (stereo not drawn) [Compound 52],IC50,[1]; read-out: IC50 (unit inferred),600 nM
same,inhibition at 10 µM,[2]; Oryctolagus cuniculus,70%
CCN(CC)CCN(CC1=CC(Cc2ccccc2)(NC(=O)C(Cl)(Cl)Cl)CC1)c1cccc(OCCN2CCOCC2)c1 (stereo not drawn) [Compound 53],IC50,[1]; read-out: IC50 (unit inferred),300 nM
same,IC50,[2]; [3],3930 nM
CCN(CC)CCN(CC1=CC(Cc2ccccc2)(NC(=O)C(Cl)(Cl)Cl)CC1)c1cccc(OCCCN2CCCCC2)c1 (stereo not drawn) [Compound 54],IC50,[1]; read-out: IC50 (unit inferred),900 nM
same,inhibition at 5 µM,[2]; Oryctolagus cuniculus,24%
CCN(CC)CCN(CC1=CC(Cc2ccccc2)(NC(=O)C(Cl)(Cl)Cl)CC1)c1cccc(OCCN2CCCC2)c1 (stereo not drawn) [Compound 55],IC50,[1]; read-out: IC50 (unit inferred),900 nM
same,inhibition at 2 µM,[2]; Oryctolagus cuniculus,43%
CN(C)CCSc1ccc(NCC2=CC(Cc3ccccc3)(NC(=O)C(Cl)(Cl)Cl)CC2)cc1 (stereo not drawn) [Compound 56],IC50,[1]; read-out: IC50 (unit inferred),1500 nM
same,inhibition at 2 µM,[2]; Oryctolagus cuniculus,24%
O=C(NC1(Cc2ccccc2)C=C(CN(CCN2CCOCC2)Cc2cccc(OCCN3CCOCC3)c2)CC1)C(Cl)(Cl)Cl (stereo not drawn) [Compound 57],IC50,[1]; read-out: IC50 (unit inferred),700 nM
same,IC50,"[2]; Oryctolagus cuniculus, read-out: IC50 (unit inferred)",1060 nM
CCN(CC)CCSc1ccc(NCC2=CC(Cc3ccccc3)(NC(=O)C(Cl)(Cl)Cl)CC2)cc1 (stereo not drawn) [Compound 58],IC50,[1]; read-out: IC50 (unit inferred),1800 nM
same,inhibition at 2 µM,[2]; Oryctolagus cuniculus,44%
O=C(c1ccc(F)cc1)N(CC1=CC(Cc2ccccc2)(NC(=O)C(Cl)(Cl)Cl)CC1)c1cccc(OCCN2CCOCC2)c1 (stereo not drawn) [Compound 59],IC50,[1]; read-out: IC50,52 nM
same,inhibition at 3 µM,"[2]; Oryctolagus cuniculus, @ 3.0 μM",54%
COc1ccc(C(=O)N(CC2=CC(Cc3ccccc3)(NC(=O)C(Cl)(Cl)Cl)CC2)c2cccc(OCCN3CCOCC3)c2)cc1 (stereo not drawn) [Compound 60],IC50,[1]; read-out: IC50,90 nM
same,inhibition at 10 µM,[2]; Oryctolagus cuniculus,49%
O=C(c1ccc(Br)cc1)N(CC1=CC(Cc2ccccc2)(NC(=O)C(Cl)(Cl)Cl)CC1)c1cccc(OCCN2CCOCC2)c1 (stereo not drawn) [Compound 61],inhibition at 0.05 µM,[1]; @ 0.05 μM,64%
same,inhibition at 1 µM,[2]; Oryctolagus cuniculus,63%
O=C(c1ccc(F)c(F)c1)N(CC1=CC(Cc2ccccc2)(NC(=O)C(Cl)(Cl)Cl)CC1)c1cccc(OCCN2CCOCC2)c1 (stereo not drawn) [Compound 62],IC50,[1]; read-out: IC50,50 nM
same,inhibition at 1 µM,[2]; Oryctolagus cuniculus,65%
O=C(Nc1cccc(F)c1)N(CC1=CC(Cc2ccccc2)(NC(=O)C(Cl)(Cl)Cl)CC1)c1cccc(OCCN2CCOCC2)c1 (stereo not drawn) [Compound 63],IC50,[1]; read-out: IC50,37 nM
same,inhibition at 1 µM,[2]; Oryctolagus cuniculus,63.8%
O=C(c1sccc1Br)N(CC1=CC(Cc2ccccc2)(NC(=O)C(Cl)(Cl)Cl)CC1)c1cccc(OCCN2CCOCC2)c1 (stereo not drawn) [Compound 115],inhibition at 1 µM,[1],65%
O=C(c1ccc([N+](=O)[O-])cc1)N(CC1=CC(Cc2ccccc2)(NC(=O)C(Cl)(Cl)Cl)CC1)c1cccc(OCCN2CCOCC2)c1 (stereo not drawn) [Compound 116],inhibition at 0.1 µM,[1],69%
O=C(C(c1ccccc1)c1ccccc1)N(CC1=CC(Cc2ccccc2)(NC(=O)C(Cl)(Cl)Cl)CC1)c1cccc(OCCN2CCOCC2)c1 (stereo not drawn) [Compound 117],inhibition at 1 µM,[1],42%
O=C(Oc1ccccc1)N(CC1=CC(Cc2ccccc2)(NC(=O)C(Cl)(Cl)Cl)CC1)c1cccc(OCCN2CCOCC2)c1 (stereo not drawn) [Compound 118],inhibition at 1 µM,[1],51%
O=C(NC1CCCCC1)N(CC1=CC(Cc2ccccc2)(NC(=O)C(Cl)(Cl)Cl)CC1)c1cccc(OCCN2CCOCC2)c1 (stereo not drawn) [Compound 119],inhibition at 1 µM,[1],56%
O=C(Nc1ccc(F)cc1)N(CC1=CC(Cc2cccc(Cl)c2)(NC(=O)C(Cl)(Cl)Cl)CC1)c1cccc(OCCN2CCOCC2)c1 (stereo not drawn) [Compound 120],IC50,[1]; read-out: IC50,10 nM
O=C(c1ccc(F)cc1)N(CC1=CC(Cc2cccc(Cl)c2)(NC(=O)C(Cl)(Cl)Cl)CC1)c1cccc(OCCN2CCOCC2)c1 (stereo not drawn) [Compound 121],IC50,[1]; read-out: IC50,30 nM
O=C(c1ccc2c(c1)OCO2)N(CC1=CC(Cc2ccccc2)(NC(=O)C(Cl)(Cl)Cl)CC1)c1cccc(OCCN2CCOCC2)c1 (stereo not drawn) [Compound 122],inhibition at 1 µM,[1],77%
CC(C)C1(NC(=O)C(Cl)(Cl)Cl)C=C(CN(C(=O)Nc2ccccc2)c2cccc(OCCN3CCOCC3)c2)CC1 (stereo not drawn) [Compound 123],inhibition at 1 µM,[1],51%
O=C(c1cccc2ccccc12)N(CC1=CC(Cc2ccccc2)(NC(=O)C(Cl)(Cl)Cl)CC1)c1cccc(OCCN2CCOCC2)c1 (stereo not drawn) [Compound 124],inhibition at 0.1 µM,[1],40%
O=C(c1ccc(F)cc1)N(CC1=CC(Cc2ccc(F)cc2)(NC(=O)C(Cl)(Cl)Cl)CC1)c1cccc(OCCN2CCOCC2)c1 (stereo not drawn) [Compound 125],inhibition at 0.04 µM,[1],43%
O=C(c1cccc(F)c1)N(CC1=CC(Cc2ccc(F)cc2)(NC(=O)C(Cl)(Cl)Cl)CC1)c1cccc(OCCN2CCOCC2)c1 (stereo not drawn) [Compound 126],inhibition at 0.04 µM,[1],44%
O=C(Nc1ccccc1)N(CC1=CC(NC(=O)C(Cl)(Cl)Cl)(c2ccccc2)CC1)c1cccc(OCCN2CCOCC2)c1 (stereo not drawn) [Compound 127],inhibition at 0.1 µM,[1],33%
O=C(c1ccc(F)cc1)N(CC1=CC(NC(=O)C(Cl)(Cl)Cl)(c2ccccc2)CC1)c1cccc(OCCN2CCOCC2)c1 (stereo not drawn) [Compound 128],inhibition at 0.1 µM,[1],43%
O=C(c1ccc(Br)cc1)N(CC1=CC(Cc2cccc(Cl)c2)(NC(=O)C(Cl)(Cl)Cl)CC1)c1cccc(OCCN2CCOCC2)c1 (stereo not drawn) [Compound 129],inhibition at 0.1 µM,[1],70%
O=C(c1ccc(F)c(F)c1)N(CC1=CC(Cc2cccc(Cl)c2)(NC(=O)C(Cl)(Cl)Cl)CC1)c1cccc(OCCN2CCOCC2)c1 (stereo not drawn) [Compound 130],inhibition at 0.1 µM,[1],78%
O=C(NC1(Cc2ccccc2)C=C(CNc2cccc(OCCN3CCOCC3)c2)CC1)C(F)(F)F (stereo not drawn) [Compound 131],inhibition at 10 µM,[1],25%
CC(=O)NC1(Cc2ccccc2)C=C(CN(C(=O)c2ccc(F)cc2)c2cccc(OCCN3CCOCC3)c2)CC1 (stereo not drawn) [Compound 133],inhibition at 1 µM,[1],51%
O=C(Nc1ccccc1)N(CC1=CC(Cc2ccccc2)(NC(=O)C(F)(F)F)CC1)c1cccc(OCCN2CCOCC2)c1 (stereo not drawn) [Compound 134],inhibition at 1 µM,[1],69%
O=C(Nc1ccccc1)N(CC1=CC(Cc2ccccc2)(NC(=O)C(Cl)(Cl)Cl)CC1)c1cccc(OCC[N+]2([O-])CCOCC2)c1 (stereo not drawn) [Compound 136],inhibition at 1 µM,[1],57%
O=C(c1ccc(Br)cc1)N(CC1=CC(Cc2ccccc2)(NC(=O)C(Cl)(Cl)Cl)CC1)c1cccc(OCC[N+]2([O-])CCOCC2)c1 (stereo not drawn) [Compound 137],inhibition at 1 µM,[1],50%
O=C(c1ccc(-c2ccccc2)cc1)N(CC1=CC(Cc2ccccc2)(NC(=O)C(Cl)(Cl)Cl)CC1)c1cccc(OCCN2CCOCC2)c1 (stereo not drawn) [Compound 1407],inhibition at 1 µM,[1],58%
